SMILES strings stand for the structures.

Consider 1 compound from US8586110B2, “Therapeutic composition produced using Camellia sinensis leaves and hydrogen peroxide” (LiveLeaf, Inc., priority 2007, dated 2013).

The test system of the assay is wild strain E-Coli. Kind of assay: E-Coli culture turbidity over time (Experiment 4). The assay is classed as cell-based. Particulars: 25 ppm hydrogen peroxide or equivalent concentration. As for the experimental part: A wild strain E-Coli culture was added to three samples. The sample A contained 25 ppm hydrogen peroxide in water. The sample B contained a solution of Formulation A diluted to equivalent 25 ppm hydrogen peroxide fraction. The sample C contained a solution having a green tea extract of the same concentration of Formulation A but without hydrogen peroxide.

As for `OO` [hydrogen peroxide], the “antimicrobial effect on bacteria population (visual turbidity)” value is “initially reduced but began to exhibit increased visual turbidity after 16 hours”.
